Source: patent publication US9637462B2, “Process for the preparation of N-iodoamides” (TECHNION RESEARCH & DEVELOPMENT FOUNDATION LIMITED, priority 2013, dated 2017)

Columns and labels:
[1] = Distribution coefficient (K) of amides between water-immiscible organic solvent and water (recovery of amides from aqueous solution); type: physicochemical; details: 25° C., stirred 0.5 h
Method: A mixture of amide (weight of amide (W): 0.2-0.5 g), water (20-100 mL) and water immiscible organic solvent (the same volume as water) was stirred at 25° C. for 0.5 h. The organic layer was thoroughly separated, dried over Na2SO4, filtered and concentrated in vacuo to recover the amide. Distribution coefficient K was calculated according to the formula K=Wo/W−Wo, where Wo is weight of the recovered amide in g. Distribution coefficients of 3,5,5-trimethylhydantoin (3,5,5-TMH), 4,4-dimethyloxazolidin-2-one (DMO), 5,5-dimethylhydantoin (DMH) and succinimide in hexane, benzene, CCl4 and DCM are shown in Table 3.1.

[2] = shake-flask, equal volumes, gravimetric recovery from organic layer; details: 25 °C
[3] = PhH (benzene) / water (equal volumes)

Compound | melting point | Distribution coefficient (K) ([1]; CCl4 / water (equal volumes)) | Distribution coefficient (K) ([1]; DCM / water (equal volumes)) | Distribution coefficient (K) [1, 3] | Distribution coefficient (K) ([1]; hexane / water (equal volumes)) | partition coefficient dichloromethane / water [2]
CC1(C)COC(=O)N1I | 148 to 149 °C (dec.) | – | – | – | – | –
CN1C(=O)N(I)C(C)(C)C1=O [1-ITMH, 1-iodo-3,5,5-trimethylhydantoin] | 198 to 199 °C (dec.) | – | – | – | – | –
CN1C(=O)NC(C)(C)C1=O [3,5,5-TMH, 3,5,5-trimethylhydantoin] | – | 0.1≦ | 1.6 | 0.1≦ | 0.1≦ | 1.6 mass ratio (equal phase volumes)

The next lines start with the values.

melting point | Distribution coefficient (K) ([1]; CCl4 / water (equal volumes)) | Distribution coefficient (K) ([1]; DCM / water (equal volumes)) | Distribution coefficient (K) [1, 3] | Distribution coefficient (K) ([1]; hexane / water (equal volumes)) | partition coefficient dichloromethane / water [2] | Compound
213 to 214 °C (dec.) | – | – | – | – | – | CN1C(=O)N(I)C(=O)C1(C)C [3-ITMH, 3-iodo-1,5,5-trimethylhydantoin]
– | 0.1≦ | 0.1≦ | 0.1≦ | 0.1≦ | – | CC1(C)NC(=O)NC1=O [DMH, 5,5-dimethylhydantoin, reference compound]
– | 0.1≦ | 0.5 | 0.1≦ | 0.1≦ | 0.5 mass ratio (equal phase volumes) | CC1(C)COC(=O)N1 [DMO, 4,4-dimethyloxazolidin-2-one]
– | 0.1≦ | 0.1≦ | 0.1≦ | 0.1≦ | – | O=C1CCC(=O)N1 [succinimide, reference compound]
